Measurements: patent publication US10597388B2, “Pyridazinone herbicides” (FMC CORPORATION, priority 2014, dated 2020)
Like-named read-outs stand apart in the source and are kept apart here.

Assays:
Format in all cases: in vivo
[1] = system: barnyardgrass (Echinochloa crus-galli); assay: Test C greenhouse herbicide test, pre- and postemergence
Procedure, shortened: (§1)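 Percent-control ratings (0 none, 100 complete) came from visual comparison with controls held alongside in the greenhouse for 13–15 d. Treatments covered soil application at sowing and foliar application to young plants 2–18 cm tall.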

[2] = system: galium (catchweed bedstraw, Galium aparine); assay: as above
Procedure, shortened: as §1

[3] = system: velvetleaf (Abutilon theophrasti); assay: as above
Procedure, shortened: as §1

[4] = system: pigweed (Amaranthus retroflexus); assay: Test A greenhouse herbicide test, pre- and postemergence; details: Amaranthus retroflexus, 240 h; for pest or weed control at 125 g/ha: 125 g ai/ha; for pest or weed control at 500 g/ha: 500 g ai/ha, 0 to 100 scale
Procedure, shortened: (§2)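 Visual injury ratings, 0 (no effect) to 100 (complete control), versus untreated plants after roughly 10 d in a greenhouse. Compounds, formulated in a surfactant-containing non-phytotoxic solvent, were sprayed on loam–sand soil after sowing (pre) or on one- to two-leaf plants 2–10 cm tall (post).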

[5] = system: barnyardgrass (Echinochloa crus-galli); assay: as above; details: Echinochloa crus-galli, 240 h; for pest or weed control at 125 g/ha: 125 g ai/ha; for pest or weed control at 500 g/ha: 500 g ai/ha, 0 to 100 scale
Procedure, shortened: as §2

[6] = system: wheat (Triticum aestivum); assay: as above; details: Triticum aestivum, post-emergence, 240 h, Postemergence
Procedure, shortened: as §2

corn (Zea mays) = assay: as above; details: Zea mays, post-emergence, 240 h, Postemergence
Procedure, shortened: as §2

[7] = system: ryegrass, Italian (Italian ryegrass, Lolium multiflorum); assay: as above; details: Lolium multiflorum, 240 h; for pest or weed control at 125 g/ha: 125 g ai/ha
Procedure, shortened: as §2

[8] = system: foxtail, giant (giant foxtail, Setaria faberii); assay: as above; details: Setaria faberi, 240 h; for pest or weed control at 125 g/ha: 125 g ai/ha; for pest or weed control at 500 g/ha: 500 g ai/ha, 0 to 100 scale
Procedure, shortened: as §2

[9] = system: ragweed (common ragweed, Ambrosia elatior); assay: as above; details: Ambrosia artemisiifolia, 240 h; for pest or weed control at 125 g/ha: 125 g ai/ha; for pest or weed control at 500 g/ha: 500 g ai/ha, 0 to 100 scale
Procedure, shortened: as §2

kochia (Kochia scoparia) = assay: as above; details: Bassia scoparia, 240 h; for pest or weed control at 125 g/ha: 125 g ai/ha; for pest or weed control at 500 g/ha: 500 g ai/ha, 0 to 100 scale
Procedure, shortened: as §2

[10] = Postemergence, 31 g ai/ha, 0 to 100 scale (0 no effect, 100 complete control)
[11] = Postemergence, 125 g ai/ha, scale 0 to 100, 0 is no effect, 100 is complete control
[12] = Postemergence, 250 g ai/ha, scale 0 to 100, 0 no effect, 100 complete control, 13 to 15 d
[13] = postemergence, 62 g ai/ha, scale 0 to 100, 0 no effect, 100 complete control

In the case of CC(=O)Oc1c(C)nn(C)c(=O)c1-c1c(C)oc2ccc(C)cc12 [Compound 14, 5-(acetyloxy)-4-(2,5-dimethyl-3-benzofuranyl)-2,6-dimethyl-3(2H)-pyridazinone], the “Barnyardgrass plant response rating” value [1, 10] is reported as 5, the “Plant response rating, Barnyardgrass” value [1, 11] is reported as 55 and the “Plant response rating, Barnyardgrass” value [1, 12] is reported as 60. The “Barnyardgrass plant response rating” value [1, 13] was 5, the “Galium plant response rating” value [2, 10] was 50 and the “Plant response rating, Galium” value [2, 11] was 80. The “Plant response rating, Galium” value [2, 12] was 90, the “Galium plant response rating” value [2, 13] was 55 and the “Velvetleaf plant response rating” value [3, 10] was 10. For the same compound, the “Plant response rating, Velvetleaf” value [3, 11] was 40, the “Plant response rating, Velvetleaf” value [3, 12] was 40 and the “Velvetleaf plant response rating” value [3, 13] was 20. It also gave a pest or weed control at 125 g/ha ([4]; post-emergence, Postemergence, visual rating after approx. 10 d, 0 to 100 scale (0 no effect, 100 complete control), read-out: Plant response rating, Pigweed) of 60%, a pest or weed control at 500 g/ha ([4]; post-emergence, Postemergence, 0 is no effect, 100 is complete control, read-out: Pigweed plant response rating) of 80% and a pest or weed control at 125 g/ha ([4]; pre-emergence, Preemergence, 0 to 100 scale where 0 is no effect and 100 is complete control, read-out: Pigweed plant response rating) of 70%. It also gave a pest or weed control at 500 g/ha ([4]; pre-emergence, Preemergence, 0 no effect, 100 complete control, read-out: Plant response rating, Pigweed) of 90%, a pest or weed control at 125 g/ha ([5]; post-emergence, Postemergence, visual rating after approx. 10 d, 0 to 100 scale (0 no effect, 100 complete control), read-out: Plant response rating, Barnyardgrass) of 10% and a pest or weed control at 500 g/ha ([5]; post-emergence, Postemergence, 0 is no effect, 100 is complete control, read-out: Barnyardgrass plant response rating) of 70%. For the same compound, the pest or weed control at 125 g/ha ([5]; pre-emergence, Preemergence, 0 to 100 scale where 0 is no effect and 100 is complete control, read-out: Barnyardgrass plant response rating) was 0%, the pest or weed control at 500 g/ha ([5]; pre-emergence, Preemergence, 0 no effect, 100 complete control, read-out: Plant response rating, Barnyardgrass) was 40% and the plant injury at 125 g/ha ([6]; 125 g ai/ha, visual rating after approx. 10 d, 0 to 100 scale (0 no effect, 100 complete control), read-out: Plant response rating, Wheat) was 0%. For the same compound, the plant injury at 500 g/ha ([6]; 500 g ai/ha, 0 to 100 scale, 0 is no effect, 100 is complete control, read-out: Wheat plant response rating) was 0%, the Corn plant response rating (crop injury, 0 = no effect, 100 = complete kill) at 125 g/ha (corn (Zea mays); 125 g ai/ha, visual rating after approx. 10 d, 0 to 100 scale (0 no effect, 100 complete control)) was 0% and the plant injury at 500 g/ha (corn (Zea mays); 500 g ai/ha, 0 to 100 scale, 0 is no effect, 100 is complete control, read-out: Corn plant response rating) was 20%. It also gave a pest or weed control at 125 g/ha ([7]; post-emergence, Postemergence, visual rating after approx. 10 d, 0 to 100 scale (0 no effect, 100 complete control), read-out: Plant response rating, Ryegrass, Italian) of 60%, a pest or weed control at 500 g/ha ([7]; post-emergence, Postemergence, 500 g ai/ha, 0 to 100 scale, 0 is no effect, 100 is complete control, read-out: Ryegrass, Italian plant response rating) of 80% and a pest or weed control at 125 g/ha ([7]; pre-emergence, Preemergence, 0 to 100 scale where 0 is no effect and 100 is complete control, read-out: Ryegrass, Italian plant response rating) of 30%. The pest or weed control at 125 g/ha ([8]; post-emergence, Postemergence, visual rating after approx. 10 d, 0 to 100 scale (0 no effect, 100 complete control), read-out: Plant response rating, Foxtail, Giant) was 10%, the pest or weed control at 500 g/ha ([8]; post-emergence, Postemergence, 0 is no effect, 100 is complete control, read-out: Foxtail, Giant plant response rating) was 70% and the pest or weed control at 125 g/ha ([8]; pre-emergence, Preemergence, 0 to 100 scale where 0 is no effect and 100 is complete control, read-out: Foxtail, Giant plant response rating) was 0%. The pest or weed control at 500 g/ha ([8]; pre-emergence, Preemergence, 0 no effect, 100 complete control, read-out: Plant response rating, Foxtail, Giant) was 10%, the pest or weed control at 125 g/ha ([9]; post-emergence, Postemergence, visual rating after approx. 10 d, 0 to 100 scale (0 no effect, 100 complete control), read-out: Plant response rating, Ragweed) was 70% and the pest or weed control at 500 g/ha ([9]; post-emergence, Postemergence, 0 is no effect, 100 is complete control, read-out: Ragweed plant response rating) was 90%. It also gave a pest or weed control at 125 g/ha ([9]; pre-emergence, Preemergence, 0 to 100 scale where 0 is no effect and 100 is complete control, read-out: Ragweed plant response rating) of 0%, a pest or weed control at 500 g/ha ([9]; pre-emergence, Preemergence, 0 no effect, 100 complete control, read-out: Plant response rating, Ragweed) of 30% and a pest or weed control at 125 g/ha (kochia (Kochia scoparia); post-emergence, Postemergence, visual rating after approx. 10 d, 0 to 100 scale (0 no effect, 100 complete control), read-out: Plant response rating, Kochia) of 80%. It also gave a pest or weed control at 500 g/ha (kochia (Kochia scoparia); post-emergence, Postemergence, 0 is no effect, 100 is complete control, read-out: Kochia plant response rating) of 90%, a pest or weed control at 125 g/ha (kochia (Kochia scoparia); pre-emergence, Preemergence, 0 to 100 scale where 0 is no effect and 100 is complete control, read-out: Kochia plant response rating) of 10% and a pest or weed control at 500 g/ha (kochia (Kochia scoparia); pre-emergence, Preemergence, 0 no effect, 100 complete control, read-out: Plant response rating, Kochia) of 50%.
